Patent publication US11883407B2, “Medicament for the treatment of chronic cough” (Shionogi & Co., Ltd., priority 2018, dated 2024)
pIC50: −log10 of the molar value.

What was measured:
[1] = target: T1, human P2X2/3 receptor (Homo sapiens, UniProt P56373+Q9UBL9); assay: Evaluation of human P2X2/3 receptor inhibitory activity (Fluo-3 fluorescence, C6BU-1 cells, α,β-methylene ATP 6 μM)
T1 sequence (Q9UBL9 1-471): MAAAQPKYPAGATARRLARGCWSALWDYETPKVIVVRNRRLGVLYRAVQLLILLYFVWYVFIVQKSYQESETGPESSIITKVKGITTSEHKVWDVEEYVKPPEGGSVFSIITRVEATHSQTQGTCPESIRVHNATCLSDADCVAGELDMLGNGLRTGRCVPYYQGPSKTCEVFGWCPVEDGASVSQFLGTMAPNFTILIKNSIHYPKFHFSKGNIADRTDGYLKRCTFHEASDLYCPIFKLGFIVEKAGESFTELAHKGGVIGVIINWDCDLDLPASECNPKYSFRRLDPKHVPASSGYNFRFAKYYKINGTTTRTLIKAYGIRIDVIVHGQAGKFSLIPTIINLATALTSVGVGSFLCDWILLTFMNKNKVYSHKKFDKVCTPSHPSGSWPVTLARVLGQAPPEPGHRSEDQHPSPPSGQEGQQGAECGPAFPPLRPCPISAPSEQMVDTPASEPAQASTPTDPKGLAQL
T1 sequence (P56373 1-397): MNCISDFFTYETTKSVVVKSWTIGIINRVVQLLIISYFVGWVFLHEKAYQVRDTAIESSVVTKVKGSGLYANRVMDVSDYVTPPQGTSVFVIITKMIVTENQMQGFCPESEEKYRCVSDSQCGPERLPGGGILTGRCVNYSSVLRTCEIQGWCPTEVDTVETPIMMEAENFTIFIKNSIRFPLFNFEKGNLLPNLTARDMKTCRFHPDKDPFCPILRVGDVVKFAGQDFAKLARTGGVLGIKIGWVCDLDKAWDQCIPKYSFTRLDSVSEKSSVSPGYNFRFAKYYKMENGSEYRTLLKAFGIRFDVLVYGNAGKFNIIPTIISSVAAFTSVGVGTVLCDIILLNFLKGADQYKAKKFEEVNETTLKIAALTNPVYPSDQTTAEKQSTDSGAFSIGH

[2] = Phase I single dose and food effect study (safety, tolerability)

## C[C@@H](Cn1c(=O)[nH]/c(=N\c2ccc(Oc3ccccn3)cc2)n(Cc2ccc(Cl)cc2)c1=O)C(=O)O [compound represented by Formula (I), (2S)-3-(3-[(4-Chlorophenyl)methyl]-2,6-dioxo-4-{[4-(pyridin-2-yloxy)phenyl]amino}-3,6-dihydro-1,3,5-triazin-1(2H)-yl)-2-methyl-propanoic acid]
[1]
  pIC50: 5.96
[2]; Part A and Part B, healthy adult males
  deaths, serious adverse events, adverse events leading to discontinuation of administration: no deaths, serious adverse events, or adverse events leading to discontinuation of administration
[2]; all Phase I studies conducted (single dose/food effect and repeat dose)
  taste-related adverse events or side effects: No taste-related adverse events or side effects were observed
[2]; single dose 3, 10, 30, 100, 300 and 450 mg groups
  dysgeusia or any taste-related disorder as adverse event: no dysgeusia or any taste-related disorder was observed
